In patent US20150148387A1, “METHODS OF TREATMENT, DIAGNOSIS AND […] METHA[…] WHICH TARGET CERAMIDE METABOLIC […] AND […] SENESCENCE” (priority 2012, published 2015):

Tests used:
[1] = test system: cytochrome P450 (CYP); assay: Cell-associated methamphetamine content in MEF with CYP inhibitor (LC/MS); details: methamphetamine 1 mM 24 h, inhibitor 1-10 μM
[2] = test system: primary mouse embryonic fibroblasts (MEF); assay: ROS production in MEF (CM-H2DCFDA); type: cell-based; details: CYP inhibitors with methamphetamine
Protocol: Production of ROS was measured using the fluorescent probe CM-H2DCFDA (Invitrogen). This carboxy derivative of fluorescein carries additional negative charges that improve its retention compared to noncarboxylated forms. For these experiments, MEFs were grown in DMEM without phenol red, for which anti-oxidative properties have been reported. Cells were plated to subconfluence in 12-well plates, washed 3 times with pre-warmed PBS and loaded for 30 min at 37° C./5% CO2 with […] CM-H2DCFDA in DMEM without phenol red (loading medium). Then the loading medium was removed and pre-warmed fresh medium containing the different CYP450 inhibitors in presence or absence of methamphetamine was added. Fluorescence (excitation at 485 nm, emission at 530 nm) was analyzed immediately, cells were incubated at 37° C./5% CO2, and fluorescence was analyzed at the indicated time points. ROS rate versus control (%) was calculated subtracting the percentage of ROS increasing from time zero in the methamphetamine-treated samples to the percentage of ROS increasing from time zero in vehicle-treated samples.

[3] = test system: primary mouse embryonic fibroblasts (MEF); type: cell-based
Protocol: Cells were washed with ice-cold phosphate-buffered saline (PBS) and scraped into 0.5 ml of methanol/water (1:1, vol:vol) containing the internal standards listed below. Protein concentrations were measured using the BCA protein assay (Pierce, Rockford, Ill., USA). Lipids were extracted with chloroform/methanol (2:1, vol:vol; 1.0 mL). The organic phases were collected, dried under nitrogen and dissolved in methanol for LC/MS analyses.
Helium was used as collision gas. […] Mobile phase composition was as described above.
Mouse embryonic fibroblasts (MEFs) were prepared from mice embryo as previously reported. Briefly, pregnant mice at day 13 post coitum were sacrificed and the uteri were dissected out. Each embryo was separated from the placenta and the head and visceral tissues were removed. The remaining body was minced in PBS and incubated with 0.1 mM trypsin/1 mM EDTA at 37° C. for 15 min. Two volumes of Dulbecco's Modified Eagle Medium (DMEM) containing 10% fetal bovine serum (FBS) was added and stood for 5 minutes to settle down large pieces of unbroken tissues. The supernatant was then removed and centrifuged at 200×g for 5 min and suspended in fresh DMEM containing 10% FBS. Cells were cultured at 37° C. with 5% CO2.

SMILES: Clc1ccccc1C(c1ccccc1)(c1ccccc1)n1ccnc1 [clotrimazole]
- levels of non-metabolized methamphetamine [1]: increased
- release of ROS evoked by methamphetamine [2]: prevented
- baseline ceramide content ([3]; MEF without methamphetamine, inhibitor 10 μM, n=3, […]): 49.2±3 pmol-mg^−1 protein
- methamphetamine-induced ceramide accumulation ([3]; MEF, inhibitor 1-10 μM): decreased
